# Values of other authors, collected in patent US10881104B2, “Arthropod control composition, formulation, and method” (priority 2013, dated 2021).
# Tested on: D. variabilis
# Conditions: unformulated; 2 h after application
smiles,measurement,value
"CCCCCCCCCC(C)=O [Formulation 2-undecanone, 2-undecanone]",repellency,74%
